Source: ChEMBL document CHEMBL1151547, “Enantioselective reduction of ethyl 3-methyl-2-oxobutanoate by an enzymatic system from callus of catharanthus roseus” (1994)

What was measured:
[1] = system: Catharanthus roseus; experiment: Substrate specificity for NADPH-dependent dehydrogenase of catharanthus roseus membrane fraction; format: functional
[2] = system: Catharanthus roseus; experiment: Substrate specificity for NADPH-dependent dehydrogenase of catharanthus roseus supernatant fraction; format: functional

Compound | Activity [1] | Activity [2]
CCCCCCCCC(=O)C(F)(F)F | 0 | 0
CCOC(=O)CC(C)=O | 0 | 0
CCOC(=O)C(=O)CC | 65 | 68
CCC(=O)C(=O)O | 0 | 0
CCCCCC(=O)C(=O)OCC | 50 | 50
CCOC(=O)C(=O)C(C)C | 100 | 100
COC(=O)CC(=O)CCl | 0 | 12
O=CC(O)CO (stereo not drawn) | 0 | 0
O=C(c1ccccc1)C(F)(F)F | 6 | 65
CCOC(=O)C(C)C(C)=O (stereo not drawn) | 0 | 29
CC(C)CC(=O)C(=O)O [2-Oxoisohexanoate] | 0 | 0
CC(C)C(=O)C(=O)O [2-Oxoisovalerate] | 0 | 0
CC=O [ACETALDEHYDE] | 0 | 0
CCOC(=O)C(C)=O [ETHYL PYRUVATE] | 59 | 70
